What was measured:
[1] = biological target: Receptor tyrosine-protein kinase erbB-2 (Homo sapiens, UniProt P04626); type: cell-based; details: insect cells;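 further: inhibition of HER2 kinase enzyme activity, measured with Poly(Glu:Tyr) as the phosphorylation substrate; in other assays of this panel Not Active means under 50% inhibition at 10 µM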
[2] = biological target: Sigma non-opioid intracellular receptor 1 (Homo sapiens, UniProt Q99720); test: DRUGMATRIX: Sigma1 radioligand binding (ligand: [3H] Haloperidol); type: cell membranes, Jurkat, Membrane; details: Not Active = under 50% inhibition at 10 µM
Chain of Sigma non-opioid intracellular receptor 1 (Q99720 whole entry): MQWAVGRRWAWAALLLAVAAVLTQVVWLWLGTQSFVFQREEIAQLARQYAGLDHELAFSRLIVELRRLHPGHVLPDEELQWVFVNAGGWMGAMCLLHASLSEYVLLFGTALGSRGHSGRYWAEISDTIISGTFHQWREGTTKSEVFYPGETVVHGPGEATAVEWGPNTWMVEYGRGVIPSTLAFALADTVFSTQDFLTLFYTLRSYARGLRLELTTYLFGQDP

[3] = biological target: T1, Amine oxidase [flavin-containing] A (Homo sapiens, UniProt P21397); test: DRUGMATRIX: Monoamine Oxidase MAO-A enzyme inhibition (substrate: Kynuramine); parameters: species or system BTI-TN-5B1-4; details: bti-tn-5b1-4; Not Active = under 50% inhibition at 10 µM
T1 sequence (P21397 whole entry): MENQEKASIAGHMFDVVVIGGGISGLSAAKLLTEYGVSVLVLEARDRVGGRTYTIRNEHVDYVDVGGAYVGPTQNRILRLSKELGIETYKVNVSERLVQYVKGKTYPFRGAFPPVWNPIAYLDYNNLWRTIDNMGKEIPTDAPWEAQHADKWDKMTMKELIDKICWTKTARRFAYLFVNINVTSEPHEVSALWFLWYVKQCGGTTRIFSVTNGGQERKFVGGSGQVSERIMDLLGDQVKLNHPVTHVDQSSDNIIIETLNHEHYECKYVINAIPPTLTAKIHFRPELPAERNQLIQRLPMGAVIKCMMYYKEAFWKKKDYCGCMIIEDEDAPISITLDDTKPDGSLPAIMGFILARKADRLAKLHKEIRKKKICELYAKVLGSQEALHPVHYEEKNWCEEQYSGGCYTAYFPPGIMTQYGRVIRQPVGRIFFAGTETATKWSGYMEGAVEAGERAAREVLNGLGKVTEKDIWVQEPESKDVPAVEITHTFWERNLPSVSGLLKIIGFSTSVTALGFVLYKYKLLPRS

[4] = biological target: T2, Cholecystokinin receptor type A (Homo sapiens, UniProt P32238); type: cell membranes, Membrane; details: 1321-n1; further: in other assays of this panel Not Active means under 50% inhibition at 10 µM
T2 sequence (P32238 whole entry): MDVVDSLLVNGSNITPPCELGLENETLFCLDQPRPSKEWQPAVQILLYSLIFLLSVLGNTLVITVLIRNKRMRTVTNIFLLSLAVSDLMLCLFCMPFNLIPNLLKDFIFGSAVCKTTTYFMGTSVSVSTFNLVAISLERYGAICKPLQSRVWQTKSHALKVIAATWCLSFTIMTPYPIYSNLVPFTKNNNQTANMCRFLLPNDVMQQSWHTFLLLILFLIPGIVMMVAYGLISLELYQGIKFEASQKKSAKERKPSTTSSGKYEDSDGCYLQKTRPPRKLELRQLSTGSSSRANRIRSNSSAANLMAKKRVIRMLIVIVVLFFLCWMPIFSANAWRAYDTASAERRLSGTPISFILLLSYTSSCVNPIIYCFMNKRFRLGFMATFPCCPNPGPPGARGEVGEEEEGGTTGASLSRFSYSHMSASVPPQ

[5] = biological target: Sodium-dependent noradrenaline transporter (Homo sapiens, UniProt P23975); test: DRUGMATRIX: Norepinephrine Transporter radioligand binding (ligand: [125I] RTI-55); type: cell membranes, MDCK, Membrane; details: Not Active = under 50% inhibition at 10 µM
Chain of Sodium-dependent noradrenaline transporter (P23975 whole entry): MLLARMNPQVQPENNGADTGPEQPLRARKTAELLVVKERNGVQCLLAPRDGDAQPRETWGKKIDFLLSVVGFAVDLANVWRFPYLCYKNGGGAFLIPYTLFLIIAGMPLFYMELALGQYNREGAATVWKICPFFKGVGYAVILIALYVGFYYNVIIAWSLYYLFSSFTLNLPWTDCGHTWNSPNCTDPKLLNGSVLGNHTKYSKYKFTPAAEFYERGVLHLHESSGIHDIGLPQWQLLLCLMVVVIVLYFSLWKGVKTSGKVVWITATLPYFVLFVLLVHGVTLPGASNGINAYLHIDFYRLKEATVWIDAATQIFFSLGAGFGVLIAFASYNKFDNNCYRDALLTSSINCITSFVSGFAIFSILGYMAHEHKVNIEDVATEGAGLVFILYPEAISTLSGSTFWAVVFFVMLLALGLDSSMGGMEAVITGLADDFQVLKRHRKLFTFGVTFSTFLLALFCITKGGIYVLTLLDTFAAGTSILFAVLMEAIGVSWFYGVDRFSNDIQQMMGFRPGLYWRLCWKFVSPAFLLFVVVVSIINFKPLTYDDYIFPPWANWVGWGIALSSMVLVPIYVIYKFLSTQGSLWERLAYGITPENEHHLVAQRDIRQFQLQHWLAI

[6] = biological target: T3, Cytochrome P450 2A6 (Homo sapiens, UniProt P11509); details: bti-tn-5b1-4; further: in other assays of this panel Not Active means under 50% inhibition at 10 µM
T3 sequence (P11509 whole entry): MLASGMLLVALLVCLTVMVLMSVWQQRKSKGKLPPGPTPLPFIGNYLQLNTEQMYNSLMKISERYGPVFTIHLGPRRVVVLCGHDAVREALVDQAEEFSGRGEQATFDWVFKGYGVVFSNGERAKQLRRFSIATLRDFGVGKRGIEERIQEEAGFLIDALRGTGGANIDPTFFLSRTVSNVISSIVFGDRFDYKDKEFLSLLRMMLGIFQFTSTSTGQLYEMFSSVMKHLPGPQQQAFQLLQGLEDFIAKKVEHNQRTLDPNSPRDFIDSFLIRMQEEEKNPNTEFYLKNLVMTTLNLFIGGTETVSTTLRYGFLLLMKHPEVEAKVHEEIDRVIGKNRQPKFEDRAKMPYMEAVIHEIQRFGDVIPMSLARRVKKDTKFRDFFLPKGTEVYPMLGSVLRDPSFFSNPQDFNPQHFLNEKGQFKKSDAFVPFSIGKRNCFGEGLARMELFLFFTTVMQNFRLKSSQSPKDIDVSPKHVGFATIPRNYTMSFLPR

[7] = biological target: Aldo-keto reductase family 1 member B1 (Rattus norvegicus, UniProt P07943); test: biochemical; type: tissue-based, Lens of camera-type eye;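 further: inhibition of aldose reductase enzyme activity, measured with DL-glyceraldehyde as the substrate; in other assays of this panel Not Active means under 50% inhibition at 10 µM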

Compound | IC50 [1] | Ki [1] | IC50 ([2]; jurkat) | Ki ([2]; jurkat) | IC50 [3] | Ki [3] | IC50 [4] | Ki [4] | IC50 ([5]; mdck) | Ki ([5]; mdck) | IC50 [6] | Ki [6] | IC50 [7] | Ki [7] | IC50 ([5]; read-out: IC50) | Ki ([5]; read-out: Ki) | IC50 ([2]; read-out: IC50) | Ki ([2]; read-out: Ki)
POVIDONE | Not Active | Not Active | Not Active | Not Active | Not Active | Not Active | Not Active | Not Active | Not Active | Not Active | Not Active | Not Active | Not Active | Not Active | – | – | – | –
C=CCO [ALLYL ALCOHOL] | Not Active | – | Not Active | – | Not Active | – | Not Active | – | Not Active | – | Not Active | Not Active | Not Active | – | – | – | – | –
CHROMIC CHLORIDE | Not Active | Not Active | Not Active | Not Active | Not Active | Not Active | Not Active | Not Active | Not Active | Not Active | Not Active | Not Active | Not Active | Not Active | – | – | – | –
Clc1cc(Cl)c(OCC#CI)cc1Cl [HALOPROGIN] | Not Active | – | Not Active | – | Not Active | – | Not Active | – | – | – | Not Active | Not Active | Not Active | – | 2.77 µM | 2.75 µM | – | –
C[N+](C)(C)CCOP(=O)([O-])OC[C@H](O)CO | Not Active | – | Not Active | – | Not Active | – | Not Active | – | Not Active | – | Not Active | Not Active | Not Active | – | – | – | – | –
COc1ccc(C[C@H](N)C(=O)N[C@H]2[C@@H](O)[C@H](n3cnc4c(N(C)C)ncnc43)O[C@@H]2CO)cc1 [PUROMYCIN] | Not Active | – | Not Active | – | Not Active | – | Not Active | – | Not Active | – | Not Active | Not Active | Not Active | – | – | – | – | –
ClC1=C(Cl)[C@]2(Cl)[C@@H]3[C@@H]4C[C@@H]([C@H]5O[C@@H]45)[C@@H]3[C@@]1(Cl)C2(Cl)Cl [DIELDRIN] | Not Active | – | Not Active | – | Not Active | – | Not Active | – | Not Active | – | Not Active | Not Active | Not Active | – | – | – | – | –
CARBOXYMETHYLCELLULOSE | Not Active | Not Active | Not Active | Not Active | Not Active | Not Active | Not Active | Not Active | Not Active | Not Active | Not Active | Not Active | Not Active | Not Active | – | – | – | –
CC(CN1c2ccccc2Sc2ccccc21)N(C)C (stereo not given) [PROMETHAZINE] | Not Active | – | – | – | Not Active | – | Not Active | – | – | – | Not Active | Not Active | Not Active | – | 4.24 µM | 4.2 µM | 0.287 µM | 0.12 µM
NCC(CC(=O)O)c1ccc(Cl)cc1 (stereo not given) [BACLOFEN] | Not Active | – | Not Active | – | Not Active | – | Not Active | – | Not Active | – | Not Active | Not Active | Not Active | – | – | – | – | –
CN(CCOc1ccc(C[C@H](Nc2ccccc2C(=O)c2ccccc2)C(=O)O)cc1)c1ccccn1 | Not Active | – | Not Active | – | Not Active | – | Not Active | – | – | – | Not Active | Not Active | Not Active | – | 40.3 µM | 40 µM | – | –

From ChEMBL document CHEMBL1909046, “DrugMatrix in vitro pharmacology data”
